System: HT29 cells
Assay: Inhibition of cell necrosis (CCK8 method), induced programmed necrosis of HT29 cells
Assay type: cell-based
Details: Homo sapiens, HT-29; rescue from necrosis induced by TNF-α 20 ng/mL, AT-406 1 μM, Z-VAD-FMK 20 μM; 16-20 hours; CCK-8, OD 450 nm
Summary of the method: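 Rescue from programmed necrosis was scored by CCK-8 absorbance at 450 nm after 16-20 h of TNF-α (20 ng/mL), AT-406 (1 μM) and Z-VAD-FMK (20 μM) at 37 °C, 5% CO2. HT29 cells had received compound 30 min earlier across nine 4-fold dilutions (top 25000 nM final). IC50 came from % inhibition relative to uninduced and induced-only wells.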

Row | SMILES | IC50
1 | CC(C)n1nc(C(F)(F)F)cc1-c1ccnc(NC(=O)c2nnc(Cc3ccccc3)[nH]2)c1 [Example 32, 5-benzyl-N-(4-(1-isopropyl-3-(trifluoromethyl)-1H-pyrazol-5-yl)pyridin-2-yl)-4H-1,2,4-triazole-3-carboxamide] | > 10000 nM
2 | CC(C)(O)CCCOc1ccc(Cl)c(-c2ccnc(NC(=O)c3nnc(Cc4ccccc4F)[nH]3)c2)c1 [Example 338, N-(4-(2-chloro-5-((4-hydroxy-4-methylpentyl)oxy)phenyl)pyridin-2-yl)-5-(2-fluorobenzyl)-4H-1,2,4-triazole-3-carboxamide] | ≤ 100 nM
3 | CC(C)(O)COc1ccc(C(F)(F)F)c(-c2ccnc(NC(=O)c3nnc(CC4CCCCC4)[nH]3)c2)c1 [Example 267, 5-(cyclohexylmethyl)-N-(4-(5-(2-hydroxyl-2-methylpropoxy)-2-(trifluoromethyl)phenyl)pyridin-2-yl)-4H-1,2,4-triazole-3-carboxamide] | ≤ 100 nM
4 | O=C(Nc1cc(-c2cc(OCCCCCO)ccc2Cl)ccn1)c1nnc(Cc2ccccc2)[nH]1 [Example 375, 5-benzyl-N-(4-(2-chloro-5-((5-hydroxypentyl)oxy)phenyl)pyridin-2-yl)-4H-1,2,4-triazole-3-carboxamide] | ≤ 100 nM
5 | Cc1ccc(OCCCC(C)(C)O)cc1-c1cc(NC(=O)c2nnc(CC3CCCCC3)[nH]2)ncc1C [Example 241, 5-(cyclohexylmethyl)-N-(4-(5-((4-hydroxy-4-methylpentyl)oxy)-2-methylphenyl)-5-methylpyridin-2-yl)-4H-1,2,4-triazole-3-carboxamide] | 100 to 1000 nM
6 | Cc1ccc(OCCC2CC2)cc1-c1ccnc(NC(=O)c2nnc(Cc3ccccc3)[nH]2)c1 [Example 69, 5-benzyl-N-(4-(5-(2-cyclopropylethoxy)-2-methylphenyl)pyridin-2-yl)-4H-1,2,4-triazole-3-carboxamide] | ≤ 100 nM
7 | Cc1ccc(OCCCC2(O)CCCC2)cc1-c1ccnc(NC(=O)c2nnc(Cc3ccccc3)[nH]2)c1 [Example 163, 5-benzyl-N-(4-(5-(3-(1-hydroxycyclopentyl)propoxy)-2-methylphenyl)pyridin-2-yl)-4H-1,2,4-triazole-3-carboxamide] | ≤ 100 nM
8 | O=C(Nc1cc(-c2ccccc2OCCO)ccn1)c1nnc(Cc2ccccc2)[nH]1 [Example 124, 5-benzyl-N-(4-(2-(2-hydroxyethoxy)phenyl)pyridin-2-yl)-4H-1,2,4-triazole-3-carboxamide] | 1000 to 10000 nM
9 | Cc1ccc(Cl)cc1-c1ccnc(NC(=O)c2nnc(Cc3ccccc3)[nH]2)c1 [Example 34, 5-benzyl-N-(4-(5-chloro-2-methylphenyl)pyridin-2-yl)-4H-1,2,4-triazole-3-carboxamide] | 100 to 1000 nM
10 | COc1cnccc1-c1ccnc(NC(=O)c2nnc(Cc3ccccc3)[nH]2)c1 [Example 25, 5-benzyl-N-(3′-methoxy-[4,4′-bipyridin]-2-yl)-4H-1,2,4-triazole-3-carboxamide] | 1000 to 10000 nM
11 | O=C(Nc1cc(-c2cc(OCCCCO)ccc2Cl)ccn1)c1nnc(Cc2ccccc2)[nH]1 [Example 371, 5-benzyl-N-(4-(2-chloro-5-(4-hydroxybutoxy)phenyl)pyridin-2-yl)-4H-1,2,4-triazole-3-carboxamide] | ≤ 100 nM
12 | CC(C)(O)CCCOc1ccc(Cl)c(-c2cc(NC(=O)c3nnc(CC4CCCCC4)[nH]3)ncc2Cl)c1 [Example 412, N-(5-chloro-4-(2-chloro-5-((4-hydroxy-4-methylpentyl)oxy)phenyl)pyridin-2-yl)-5-(cyclohexylmethyl)-4H-1,2,4-triazole-3-carboxamide] | 100 to 1000 nM
13 | CC(C)(O)COc1ccc(Cl)c(-c2ccnc(NC(=O)c3nnc(Cc4ccccc4F)[nH]3)c2)c1 [Example 364, 5-(2-fluorobenzyl)-N-(4-(2-chloro-5-(2-hydroxyl-2-methylpropoxy)phenyl)pyridin-2-yl)-4H-1,2,4-triazole-3-carboxamide] | ≤ 100 nM
14 | CC(C)(O)CCCOc1ccc(C(F)(F)F)c(-c2ccnc(NC(=O)c3nnc(CC4CCCC4)[nH]3)c2)c1 [Example 258, 5-(cyclopentylmethyl)-N-(4-(5-((4-hydroxy-4-methylpentyl)oxy)-2-(trifluoromethyl)phenyl)pyridin-2-yl)-4H-1,2,4-triazole-3-carboxamide] | ≤ 100 nM
15 | O=C(Nc1cc(C2CCCCC2)ccn1)c1nnc(Cc2ccccc2)[nH]1 [Example 48, 5-benzyl-N-(4-cyclohexylpyridin-2-yl)-4H-1,2,4-triazole-3-carboxamide] | > 10000 nM
16 | Cc1ccc(OCCCC(C)(C)O)cc1-c1ccnc(NC(=O)c2nnc(Cc3cccc(C(F)(F)F)c3F)[nH]2)c1 [Example 210, 5-(2-fluoro-3-trifluoromethylbenzyl)-N-(4-(5-((4-hydroxy-4-methylpentyl)oxy)-2-methylphenyl)pyridin-2-yl)-4H-1,2,4-triazole-3-carboxamide] | 100 to 1000 nM

Row | SMILES | IC50
17 | Cc1ccc(OCCCC(C)(C)O)cc1-c1ccnc(NC(=O)c2nnc(Cc3cc(F)c(F)c(F)c3)[nH]2)c1 [Example 217, 5-(3,4,5-trifluorobenzyl)-N-(4-(5-((4-hydroxy-4-methylpentyl)oxy)-2-methylphenyl)pyridin-2-yl)-4H-1,2,4-triazole-3-carboxamide] | 100 to 1000 nM
18 | CC(C)(O)CCCOc1ccc(Cl)c(-c2cc(NC(=O)c3nnc(Cc4ccccc4F)[nH]3)ncn2)c1 [Example 463, 5-(2-fluorobenzyl)-N-(6-(2-chloro-5-((4-hydroxy-4-methylpentyl)oxy)phenyl)pyrimidin-4-yl)-4H-1,2,4-triazole-3-carboxamide] | ≤ 100 nM
19 | Cc1ccc(C(=O)CC2CCOCC2)cc1-c1ccnc(NC(=O)c2nnc(Cc3ccccc3)[nH]2)c1 [Example 485, 5-benzyl-N-(4-(2-methyl-5-(2-(tetrahydro-2H-pyran-4-yl)acetyl)phenyl)pyridin-2-yl)-4H-1,2,4-triazole-3-carboxamide] | 100 to 1000 nM
20 | CC(C)(O)CCCCOc1ccc(C(F)(F)F)c(-c2ccnc(NC(=O)c3nnc(CC4CCCC4)[nH]3)c2)c1 [Example 270, 5-(cyclopentylmethyl)-N-(4-(5-((5-hydroxyl-5-methylhexyl)oxy)-2-(trifluoromethyl)phenyl)pyridin-2-yl)-4H-1,2,4-triazole-3-carboxamide] | ≤ 100 nM
21 | CC(C)(O)CCCCOc1ccc(C(F)(F)F)c(-c2ccnc(NC(=O)c3nnc(Cc4ccccc4F)[nH]3)c2)c1 [Example 269, 5-(2-fluorobenzyl)-N-(4-(5-((5-hydroxyl-5-methylhexyl)oxy)-2-(trifluoromethyl)phenyl)pyridin-2-yl)-4H-1,2,4-triazole-3-carboxamide] | ≤ 100 nM
22 | CC(C)(O)CCCOc1ccc(Cl)c(-c2ccnc(NC(=O)c3nnc(Cc4cc(-c5ccccc5)ccc4F)[nH]3)c2)c1 [Example 504, N-(4-(2-chloro-5-((4-hydroxy-4-methylpentyl)oxy)phenyl)pyridin-2-yl)-5-((4-fluoro-[1,1′-biphenyl]-3-yl)methyl)-4H-1,2,4-triazole-3-carboxamide] | 100 to 1000 nM
23 | Cc1ccc(OCCCC(C)(C)O)cc1-c1ccnc(NC(=O)c2nnc(Cc3cc(Cl)ccc3F)[nH]2)c1 [Example 204, 5-(5-chloro-2-fluorobenzyl)-N-(4-(5-((4-hydroxy-4-methylpentyl)oxy)-2-methylphenyl)pyridin-2-yl)-4H-1,2,4-triazole-3-carboxamide] | ≤ 100 nM
24 | Cc1ccc(OCC2CCOCC2)cc1-c1cc(NC(=O)c2nnc(CC3CCCC3)[nH]2)ncn1 [Example 443, 5-(cyclopentylmethyl)-N-(6-(2-methyl-5-((tetrahydro-2H-pyran-4-yl)methoxy)phenyl)pyrimidin-4-yl)-4H-1,2,4-triazole-3-carboxamide] | ≤ 100 nM
25 | CCOc1ccc(C)c(-c2cncc(NC(=O)c3nnc(Cc4ccccc4)[nH]3)c2)c1 [Example 197, 5-benzyl-N-(5-(5-ethoxy-2-methylphenyl)pyridin-3-yl)-4H-1,2,4-triazole-3-carboxamide] | > 10000 nM
26 | Cc1ccc(OCCN2CCCCC2)cc1-c1ccnc(NC(=O)c2nnc(Cc3ccc(F)cc3F)[nH]2)c1 [Example 230, 5-(2,4-difluorobenzyl)-N-(4-(2-methyl-5-(2-(piperidin-1-yl)ethoxy)phenyl)pyridin-2-yl)-4H-1,2,4-triazole-3-carboxamide] | 100 to 1000 nM
27 | O=C(Nc1cc(-c2cccc3c2CCCC3)ccn1)c1nnc(Cc2ccccc2)[nH]1 [Example 43, 5-benzyl-N-(4-(5,6,7,8-tetrahydronaphthalen-1-yl)pyridin-2-yl)-4H-1,2,4-triazole-3-carboxamide] | 1000 to 10000 nM
28 | Cc1ccc(OC(C)C)cc1-c1cncc(NC(=O)c2nnc(Cc3ccccc3)[nH]2)c1 [Example 113, 5-benzyl-N-(5-(5-isopropoxy-2-methylphenyl)pyridin-3-yl)-4H-1,2,4-triazole-3-carboxamide] | > 10000 nM
29 | Cc1cnc(NC(=O)c2nnc(Cc3ccccc3F)[nH]2)cc1-c1cc(OCCCC(C)(C)O)ccc1Cl [Example 413, N-(4-(2-chloro-5-((4-hydroxy-4-methylpentyl)oxy)phenyl)-5-methylpyridin-2-yl)-5-(2-fluorobenzyl)-4H-1,2,4-triazole-3-carboxamide] | 100 to 1000 nM
30 | Cc1ccc(OCCCC(C)(C)O)cc1-c1ccnc(NC(=O)c2nnc(Cc3cc(F)cc(C(F)(F)F)c3)[nH]2)c1 [Example 213, 5-(3-fluoro-5-trifluoromethylbenzyl)-N-(4-(5-((4-hydroxy-4-methylpentyl)oxy)-2-methylphenyl)pyridin-2-yl)-4H-1,2,4-triazole-3-carboxamide] | 1000 to 10000 nM
31 | O=C(Nc1cc(-c2cc(OCC3CCOCC3)ccc2C(F)(F)F)ncn1)c1nnc(CC2CCCCC2)[nH]1 [Example 457, 5-(cyclohexylmethyl)-N-(6-(5-((tetrahydro-2H-pyran-4-yl)methoxy)-2-(trifluoromethyl)phenyl)pyrimidin-4-yl)-4H-1,2,4-triazole-3-carboxamide] | ≤ 100 nM

Source: patent publication US12435060B2, “Acylamino bridged heterocyclic compound, and composition and application thereof” (BEIJING SCITECH-MQ PHARMACEUTICALS LIMITED, priority 2019, dated 2025)
